# Data: ChEMBL document CHEMBL6177994 (J Med Chem, 2025)
# The source made the active and inactive calls. No cut-off for these calls is given here.
# Tests used:
# GP2d = assay: PROTAC activity at CRBN/KRAS G12D mutant in human GP2d cells assessed as induction of KRAS G12D mutant degradation 0.01 to 100 nM measured after 24 hrs by immunoblot analysis; type: cell-based; details: dose 0.01-100 nM
# [1] = Inhibition of ERK phosphorylation in human ASPC1 cells harbouring KRAS G12D mutant measured after 24 hrs; type: cell-based; details: ASPC1, 24 h
# AGS = assay: Antiproliferative activity against human AGS cells harbouring KRAS G12D mutant assessed as inhibition of cell growth measured after 72 hrs by Cell titer glo method; type: functional, cell-based
# [2] = Antiproliferative activity against human GP2d cells harbouring KRAS G12D mutant assessed as inhibition of cell growth measured after 72 hrs by Cell titer glo method; type: functional, cell-based
# [3] = Antiproliferative activity against human PK-59 cells harbouring KRAS G12D mutant assessed as inhibition of cell growth measured after 72 hrs by Cell titer glo method; type: functional, cell-based; details: PK-59, 72 h
# PSN1 = assay: Antiproliferative activity against human PSN1 cells harbouring KRAS G12R mutant assessed as inhibition of cell growth measured after 72 hrs by Cell titer glo method; type: functional, cell-based
# NCI-H727 = assay: Antiproliferative activity against human NCI-H727 cells harbouring KRAS G12V mutant assessed as inhibition of cell growth measured after 72 hrs by Cell titer glo method; type: functional, cell-based
# SNU-407 = assay: Antiproliferative activity against human SNU-407 cells harbouring KRAS G12D mutant assessed as inhibition of cell growth measured after 72 hrs by Cell titer glo method; type: functional, cell-based
# GTPase KRas = GTPase KRas (Homo sapiens, UniProt P01116, G12D); assay: Binding affinity to 6 His-tagged GDP-loaded human KRAS G12D mutant assessed as GDP-GTP exchange preincubated for 30 mins followed by GTP addition for 30 mins by HTRF method
# Chain of GTPase KRas (P01116 whole entry G12D): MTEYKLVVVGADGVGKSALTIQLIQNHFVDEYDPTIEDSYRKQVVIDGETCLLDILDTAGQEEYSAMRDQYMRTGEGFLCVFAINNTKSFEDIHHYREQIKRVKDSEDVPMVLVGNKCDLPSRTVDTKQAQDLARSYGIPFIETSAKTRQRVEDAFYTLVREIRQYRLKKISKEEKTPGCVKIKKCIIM
# [4] = tested on: Protein cereblon/GTPase KRas (Homo sapiens), P01116+Q96SW2 [G12D]; assay: PROTAC activity at CRBN/KRAS G12D mutant in human ASPC1 cells assessed as induction of KRAS G12D mutant degradation at 5 nM preincubated with MG132 followed by compound addition and measured after 24 hrs by Western blot analysis; type: cell-based
# Chain of Protein cereblon/GTPase KRas (Homo sapiens), P01116+Q96SW2 [G12D] (P01116 whole entry G12D): as above
# Chain of Protein cereblon/GTPase KRas (Homo sapiens), P01116+Q96SW2 [G12D] (Q96SW2 whole entry partner): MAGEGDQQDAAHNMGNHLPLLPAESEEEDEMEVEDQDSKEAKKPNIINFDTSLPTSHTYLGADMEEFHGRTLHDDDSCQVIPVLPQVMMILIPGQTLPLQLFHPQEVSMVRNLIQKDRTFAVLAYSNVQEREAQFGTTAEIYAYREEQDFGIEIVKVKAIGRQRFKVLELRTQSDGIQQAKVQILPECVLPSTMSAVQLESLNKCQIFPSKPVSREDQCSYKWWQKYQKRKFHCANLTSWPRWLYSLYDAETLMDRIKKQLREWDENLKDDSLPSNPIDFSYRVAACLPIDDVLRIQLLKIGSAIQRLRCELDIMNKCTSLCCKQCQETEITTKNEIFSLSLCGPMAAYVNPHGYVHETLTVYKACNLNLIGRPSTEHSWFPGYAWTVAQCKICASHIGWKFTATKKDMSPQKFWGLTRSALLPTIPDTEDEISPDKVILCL
# [5] = Antitumor activity against human GP2d cells xenografted in female Balb/c nude mouse model assessed as tumor growth inhibition at 10 mg/kg, iv QW administered weekly and measured after 28 days relative to control; type: functional; details: 672 h, time 28 day, read-out: TGI
# [6] = tested on: Protein cereblon/GTPase KRas (Homo sapiens), P01116+Q96SW2 [G12D]; assay: In vivo PROTAC activity at CRBN/KRAS G12D mutant in male Balb/c nude mouse xenografted with human PK-59 cells assessed as degradation of KRAS G12D mutant at 10 mg/kg, iv measured up to 168 hrs relative to control; type: functional, organism-based
# [7] = tested on: Protein cereblon/GTPase KRas (Homo sapiens), P01116+Q96SW2 [G12D]; assay: In vivo PROTAC activity at CRBN/KRAS G12D mutant in male Balb/c nude mouse xenografted with human PK-59 cells assessed as reduction in DUSP4 level in tumor at 10 mg/kg, iv measured after 6 hrs relative to control; type: functional, organism-based; parameters: scale not given: the % may be the effect or the level left
# [8] = tested on: Protein cereblon/GTPase KRas (Homo sapiens), P01116+Q96SW2 [G12D]; assay: In vivo PROTAC activity at CRBN/KRAS G12D mutant in male Balb/c nude mouse xenografted with human PK-59 cells assessed as reduction in DUSP4 level in tumor at 10 mg/kg, iv measured up to 168 hrs relative to control; type: functional, organism-based; parameters: scale not given: the % may be the effect or the level left
# [9] = tested on: Protein cereblon/GTPase KRas (Homo sapiens), P01116+Q96SW2 [G12D]; assay: In vivo PROTAC activity at CRBN/KRAS G12D mutant in male Balb/c nude mouse xenografted with human PK-59 cells assessed as increase in cleaved caspase 7 level at 10 mg/kg, iv measured after 24 hrs relative to control; type: functional, organism-based
# [10] = tested on: Protein cereblon/GTPase KRas (Homo sapiens), P01116+Q96SW2 [G12D]; assay: In vivo PROTAC activity at CRBN/KRAS G12D mutant in male Balb/c nude mouse xenografted with human GP2d cells assessed as increase in cleaved caspase 7 level at 10 mg/kg, iv measured after 7 days; type: functional, organism-based; details: time 7.0 day
# [11] = Stability in mouse plasma assessed as half life at 1 uM measured up to 120 mins by LC-MS/MS analysis; type: ADME, cell-free
# [12] = Metabolic stability in rat liver microsomes assessed as half life at 1 uM preincubated for 3 mins with NADPH and measured up to 60 mins by LC-MS/MS analysis; type: ADME, Microsome; details: time < 63 min
# [13] = Metabolic stability in rat liver microsomes assessed as intrinsic clearance at 1 uM preincubated for 3 mins with NADPH and measured up to 60 mins by LC-MS/MS analysis; type: ADME, Microsome; details: time < 63 min, read-out: CLH
# [14] = Metabolic stability in dog liver microsomes assessed as intrinsic clearance at 1 uM preincubated for 3 mins with NADPH and measured up to 60 mins by LC-MS/MS analysis; type: ADME, Canis lupus familiaris, Microsome; details: time < 63 min, read-out: CLH
# [15] = Metabolic stability in monkey liver microsomes assessed as intrinsic clearance at 1 uM preincubated for 3 mins with NADPH and measured up to 60 mins by LC-MS/MS analysis; type: ADME, Macaca mulatta, Microsome; details: rhesus monkey, time < 63 min, read-out: CLH
# [16] = Stability in human hepatocyte assessed as half life at 100 uM measured up to 120 mins by LC-MS/MS analysis; type: ADME, cell-based; details: hepatocytes
# [17] = Stability in human hepatocyte assessed as intrinsic clearance at 100 uM measured up to 120 mins by LC-MS/MS analysis; type: ADME, cell-based; details: hepatocytes, read-out: CLH
# Cytochrome P450 1A2 = Cytochrome P450 1A2 (Homo sapiens, UniProt P05177); assay: Inhibition of CYP1A2 in human liver microsomes using phenacetin as substrate at 10 uM incubated for 15 mins in presence of NADPH by LC/MS analysis; type: ADME, Microsome; details: 0.25 h
# Chain of Cytochrome P450 1A2 (P05177 whole entry): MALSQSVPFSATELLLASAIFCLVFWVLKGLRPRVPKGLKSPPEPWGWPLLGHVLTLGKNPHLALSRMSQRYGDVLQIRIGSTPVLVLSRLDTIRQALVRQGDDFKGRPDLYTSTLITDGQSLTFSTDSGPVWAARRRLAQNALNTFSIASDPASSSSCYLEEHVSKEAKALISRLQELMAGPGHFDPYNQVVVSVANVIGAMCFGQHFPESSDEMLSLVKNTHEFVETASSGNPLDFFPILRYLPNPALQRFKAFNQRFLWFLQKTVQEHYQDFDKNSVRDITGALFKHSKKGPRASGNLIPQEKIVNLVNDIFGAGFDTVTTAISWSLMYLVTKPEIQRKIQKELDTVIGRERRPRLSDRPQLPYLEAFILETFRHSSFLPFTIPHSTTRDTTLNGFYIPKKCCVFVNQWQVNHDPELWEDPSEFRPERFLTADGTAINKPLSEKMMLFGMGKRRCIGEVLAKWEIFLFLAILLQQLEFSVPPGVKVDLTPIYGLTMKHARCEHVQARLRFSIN
# [18] = Plasma protein binding in dog at 2 uM by LC-MS/MS analysis; type: ADME, cell-free, Canis lupus familiaris; details: read-out: PPB
# [19] = Volume of distribution at steady state in male ICR mouse at 1 mg/kg, iv measured up to 24 hrs by LC-MS/MS analysis; type: ADME, organism-based; details: in vivo, read-out: Vdss
# [20] = Clearance in male ICR mouse at 1 mg/kg, iv measured up to 24 hrs by LC-MS/MS analysis; type: ADME, organism-based; details: in vivo
# [21] = AUC (0 to t) in male Beagle dog at 1 mg/kg, iv measured up to 24 hrs by LC-MS/MS analysis; type: ADME, organism-based, Canis lupus familiaris; details: in vivo
# [22] = Volume of distribution at steady state in male Beagle dog at 1 mg/kg, iv measured up to 24 hrs by LC-MS/MS analysis; type: ADME, organism-based, Canis lupus familiaris; details: in vivo, read-out: Vdss
# [23] = AUC (0 to t) in male cynomolgus monkey at 1 mg/kg, iv measured up to 24 hrs by LC-MS/MS analysis; type: ADME, organism-based, Macaca fascicularis; details: in vivo
# [24] = Elimination half life in male ICR mouse pancreas at 10 mg/kg, iv measured up to 336 hrs by LC-MS/MS analysis; type: ADME, organism-based; details: read-out: beta t1/2 (converted)
# [25] = Elimination half life in male ICR mouse lung at 10 mg/kg, iv measured up to 336 hrs by LC-MS/MS analysis; type: ADME, organism-based; details: read-out: beta t1/2 (converted)
compound,measurement,setting,value
C#Cc1c(F)ccc2cc(O)cc(-c3ncc4c(N5CC6CCC(C5)N6)nc(OCC5(CN6CCC7(CC6)CC(N6CCC(c8cc9c(cc8F)c(N8CCC(=O)NC8=O)nn9C)CC6)C7)CC5)nc4c3F)c12,Activity,GP2d,Active
same,IC50,[1],2.5 nM
same,IC50,AGS,1.01 nM
same,IC50,[2],0.19 nM
same,IC50,[3],2.8 nM
same,Activity,PSN1,Weak_effect; Compound Showed Weaker Potency In Antiproliferative Activity Compared To Mrtx1133
same,Activity,NCI-H727,Weak_effect; Compound Showed Weaker Potency In Antiproliferative Activity Compared To Mrtx1133
same,Activity,SNU-407,Active; Compound Showed Stronger Antiproliferative Activity Compared To Mrtx1133
same,IC50,GTPase KRas,6.34 nM
same,Activity,[4],inactive
same,inhibition in vivo at 10 mg/kg,[5],30.9%
same,Activity,[6],87.7%
same,Activity,[7],11%
same,Activity,[8],6.1%
same,Activity,[9],> 100%
same,Activity,[10],Active
same,half-life at 1 µM,[11],8.88 h
same,half-life at 1 µM,[12],2.52 h
same,CLint scaled at 1 µM,[13],16.6 mL/min/kg
same,CLint scaled at 1 µM,[14],4.6 mL/min/kg
same,CLint scaled at 1 µM,[15],4.3 mL/min/kg
same,half-life at 100 µM,[16],7.27 h
same,CLint scaled at 100 µM,[17],5.8 mL/min/kg
same,inhibition (INH),Cytochrome P450 1A2,Not_active
same,fraction unbound at 2 µM,[18],< 0.05
same,Vd,[19],15.8 L/kg
same,clearance,[20],39 mL/min/kg
same,AUC(0-t) at 24 h,[21],0.458 µM·h
same,Vd,[22],16 L/kg
same,AUC(0-t) at 24 h,[23],0.836 µM·h
same,half-life,[24],330 h
same,half-life,[25],105 h
